Where two headings read alike, the source gives them in different places.
Key:
SK-BR-3 cells [1] = experiment: Cell proliferation, Cell Titer Glo, checkerboard design; assay type: cell-based; details: for EC50: Homo sapiens
Procedure: The effect of all-trans retinoic acid (ATRA), a CYP26 inhibitor and their combination was studied using two HER2+ RARA+ breast cancer cell lines: AU565 and SK-BR-3. Cells were plated in a 96-well plate and treated with compounds in a “checkerboard” design. After 7 days the cell proliferation was determined using the Cell Titer Glo reagent (Promega).
(§1) This provides a strong rationale for the simultaneous targeting of both signaling pathways in breast cancer patients.

SK-BR-3 cells [2] = experiment: Apoptosis assay (Caspase 3/7 assay); assay type: cell-based
Excerpt: as §1

SK-BR-3 cells [3] = experiment: ATRA metabolism in breast cancer cells; assay type: cell-based; details: 2×10^6 SK-BR-3 cells treated with 100 nM ATRA, no CYP26 inhibitor
Procedure: To directly test whether ATRA induces its own metabolism, we treated 2×10^6 SK-BR-3 cells with 100 nM ATRA and determined the ATRA concentration after 24 hours. Significant metabolism of ATRA was found (FIG. 4), with the ATRA concentration dropping to 6 nM after 24 hrs.

[4] = system: SK-BR-3 breast cancer cells; experiment: Breast cancer xenograft study; details: SK-BR-3 xenograft, immuno-compromised mice; CYP26 inhibitor 10 mg/kg po qd×5, Lapatinib 100 mg/kg po qd×5; compared to vehicle
Procedure: Once palpable tumors were established in immuno-compromised mice, animals were randomized to four treatment groups: (1) Vehicle, (2) CYP26 inhibitor (10 mg/kg, po, qd×5), (3) the EGFR/HER2 inhibitor Lapatinib (100 mg/kg, po, qd×5) or (4) the combination of the two (10 mg/kg CYP26 inhibitor and 100 mg/kg Lapatinib).

CC1=C(/C=C/C(C)=C/C=C/C(C)=C/C(=O)O)C(C)(C)CCC1 [ATRA, all-trans retinoic acid]
EC50 (SK-BR-3 cells [1]; 168 h, SK-BR-3, 7 days, ATRA alone, estimated, read-out: EC50, inhibition of cell growth): ~40 nM | effect on cell growth (SK-BR-3 cells [1]; SK-BR-3, lapatinib/ATRA experiment): inhibited breast cancer cell growth | effect on Caspase 3/7 activity (SK-BR-3 cells [2]; SK-BR-3, synergy analyzed with Bliss additivity model): small effect | ATRA concentration after 24 hours (SK-BR-3 cells [3]): 6 nM

CS(=O)(=O)CCNCc1ccc(-c2ccc3ncnc(Nc4ccc(OCc5cccc(F)c5)c(Cl)c4)c3c2)o1 [lapatinib]
EC50 (SK-BR-3 cells [1]; SK-BR-3, lapatinib alone, read-out: EC50, inhibition of cell growth in the absence of ATRA): 64 nM | tumor progression / tumor growth inhibition [4]: Markedly reduced tumor progression | induction of Caspase 3/7 activity (SK-BR-3 cells [2]; SK-BR-3, 24 hours incubation, absence of ATRA): ~2 fold

Source: US20160038490A1, “COMPOSITIONS AND METHODS FOR TREATING DYSPROLIFERATIVE DISEASES” (ANGION BIOMEDICA CORP., priority 2012, published 2016)
